Here are results for five molecules from patent US5455249A, “Phosphorylcarbamates of rapamycin and oxime derivatives thereof” (priority 1994, dated 1995).

SMILES strings stand for the structures. Where “and” joins values, the source holds several entries; their conditions need not be identical. Equal values may be shown once.

One assay has as its system pinch skin graft. The assay is described as follows: Pinch skin graft survival time. It is filed as in vivo, male BALB/c donors, male C3H(H-2K) recipients. The conditions noted are these: 4 mg/kg, intraperitoneally or orally; untreated controls rejected within 6-7 days. The procedure: (§1) Immunosuppressive activity for representative compounds of this invention was evaluated in an in vitro standard pharmacological test procedure to measure lymphocyte proliferation (LAF) and in an in vivo standard pharmacological test procedure which evaluated the survival time of a pinch skin graft.
Representative compounds of this invention were also evaluated in an in vivo test procedure designed to determine the survival time of pinch skin graft from male BALB/c donors transplanted to male C3 H(H-2K) recipients. The method is adapted from Billingham R. E. and Medawar P. B., J. Exp. Biol. 28:385-402, (1951 ). Briefly, a pinch skin graft from the donor was grafted on the dorsum of the recipient as a allograft, and an isograft was used as control in the same region. The recipients were treated with either varying concentrations of test compounds intraperitoneally or orally. Rapamycin was used as a test control. Untreated recipients serve as rejection control. The graft was monitored daily and observations were recorded until the graft became dry and formed a blackened scab. This was considered as the rejection day. The mean graft survival time (number of days±S.D.) of the drug treatment group was compared with the control group. […] Results are expressed as the mean survival time in days. Untreated (control) pinch skin grafts are usually rejected within 6-7 days. The results shown in Table 1 are based on a dose of 4 mg/kg of test compound. A survival time of 12.0 ±1.7 days was obtained for rapamycin at 4 mg/kg.

The test system of assay [1] is lymphocyte (thymocyte / T-cell) proliferation. The assay can be described thus: Comitogen-induced thymocyte proliferation procedure (LAF). The assay is classed as cell-based, normal BALB/c mice. The conditions noted are these: for inhibition at 0.1 µM / IC50: Mus musculus; for inhibition at 0.1 µM: T-cell, read-out: % Inhib. (percent inhibition of T-cell proliferation at 0.1 μM); for IC50: Thymocyte, thymus cells of BALB/c mice cultured 72 hours with PHA and IL-1, tritiated thymidine pulse during last six hours; for LAF (ratio) compared with rapamycin: >1 means test compound inhibits thymocyte proliferation more than rapamycin. Here is the method:
as §1
The comitogen-induced thymocyte proliferation procedure (LAF) was used as an in vitro measure of the immunosuppressive effects of representative compounds. Briefly, cells from the thymus of normal BALB/c mice are cultured for 72 hours with PHA and IL-1 and pulsed with tritiated thymidine during the last six hours. Cells are cultured with and without various concentrations of rapamycin, cyclosporin A, or test compound. Cells are harvested and incorporated radioactivity is determined. Inhibition of lymphoproliferation is assessed as percent change in counts per minute from non-drug treated controls. For each compound evaluated, rapamycin was also evaluated for the purpose of comparison. An IC50 was obtained for each test compound as well as for rapamycin. […] The results obtained are provided as an IC50 and as the percent inhibition of T-cell proliferation at 0.1 μM. The results obtained for the representative compounds of this invention were also expressed as a ratio compared with rapamycin. A positive ratio indicates immunosuppressive activity. […] Calculation of the ratio is shown below. [formula]

A further assay relates to Candida albicans. The note with it: in vitro and in vivo; cited from earlier work.
For assay [2], the system named is adjuvant arthritis model, a model for rheumatoid arthritis. The note with it: in vivo; cited from earlier work.
Assay [3] deals with experimental allergic encephalomyelitis model, a model for multiple sclerosis. The note with it: in vivo; cited from earlier work.
Assay [4] concerns formation of IgE-like antibodies. The conditions noted are these: in vivo; cited from earlier work.
The conditions of assay [5]: alone or in combination with picibanil; cited from earlier work.

A word on the IC50: it is the concentration that inhibits the measured activity by half. High values mean a need for much substance, low ones inhibition by little substance. With `CCOP(=O)(NC(=O)O[C@@H]1/C(C)=C/[C@@H](C)C(=O)C[C@@H]([C@H](C)C[C@@H]2CC[C@@H](OC(=O)NP(=O)(OCC)OCC)[C@H](OC)C2)OC(=O)[C@@H]2CCCCN2C(=O)C(=O)[C@]2(O)O[C@@H](CC[C@H]2C)C[C@H](OC)/C(C)=C/C=C/C=C/[C@@H](C)C[C@@H](C)C(=O)[C@@H]1OC)OCC` [Example 1, Rapamycin 31,42-diester with (diethoxyphosphoryl)carbamic acid], the “Skin Graft mean survival time (days ± SD)” value in the assay with pinch skin graft was found to be 7.2 ± 0.4 days. Moreover, in assay [1], the inhibition at 0.1 µM worked out at 72%, the IC50 was 0.0909 µM and the “LAF (ratio) compared with rapamycin” value is given as 0.04.
For the molecule `CCOP(=O)(NC(=O)O[C@@H]1CC[C@@H](C[C@@H](C)[C@@H]2CC(=O)[C@H](C)/C=C(\C)[C@@H](O)[C@@H](OC)C(=O)[C@H](C)C[C@H](C)/C=C/C=C/C=C(\C)[C@@H](OC)C[C@@H]3CC[C@@H](C)[C@@](O)(O3)C(=O)C(=O)N3CCCC[C@H]3C(=O)O2)C[C@H]1OC)OCC` [Example 2, Rapamycin 42-ester with (diethoxyphosphoryl)carbamic acid], in the assay with pinch skin graft, the “Skin Graft mean survival time (days ± SD)” value was 10.2 ± 0.4 days and 10.0 ± 0.6 days. For the same molecule, in assay [1], the inhibition at 0.1 µM amounted to 95%, 0.01 µM corresponded to half-maximal inhibition (IC50) and the “LAF (ratio) compared with rapamycin” value turned out to be 0.44.
Take `CCOP(=O)(NC(=O)O[C@@H]1CC[C@@H](C[C@@H](C)[C@@H]2C/C(=N\OC)[C@H](C)/C=C(\C)[C@@H](O)[C@@H](OC)C(=O)[C@H](C)C[C@H](C)/C=C/C=C/C=C(\C)[C@@H](OC)C[C@@H]3CC[C@@H](C)[C@@](O)(O3)C(=O)C(=O)N3CCCC[C@H]3C(=O)O2)C[C@H]1OC)OCC` [Example 3, Rapamycin 42-ester with (diethoxyphosphoryl)carbamic acid (E)-27-O-(methyl)oxime]: in assay [1], the inhibition at 0.1 µM amounted to 51%, the IC50 was found to be 0.099 µM and the “LAF (ratio) compared with rapamycin” value turned out to be 0.05.
As for `CCOP(=O)(NC(=O)O[C@@H]1CC[C@@H](C[C@@H](C)[C@@H]2C/C(=N/OC)[C@H](C)/C=C(\C)[C@@H](O)[C@@H](OC)C(=O)[C@H](C)C[C@H](C)/C=C/C=C/C=C(\C)[C@@H](OC)C[C@@H]3CC[C@@H](C)[C@@](O)(O3)C(=O)C(=O)N3CCCC[C@H]3C(=O)O2)C[C@H]1OC)OCC` [Example 4, Rapamycin 42-ester with (diethoxyphosphoryl)carbamic acid (Z)-27-O-(methyl)oxime], in assay [1], the inhibition at 0.1 µM came out at 82%, the IC50 is 0.0419 µM and the “LAF (ratio) compared with rapamycin” value was 0.01.
For the molecule `CO[C@H]1C[C@@H]2CC[C@@H](C)[C@@](O)(O2)C(=O)C(=O)N2CCCC[C@H]2C(=O)O[C@H]([C@H](C)C[C@@H]2CC[C@@H](O)[C@H](OC)C2)CC(=O)[C@H](C)/C=C(\C)[C@@H](O)[C@@H](OC)C(=O)[C@H](C)C[C@H](C)/C=C/C=C/C=C/1C` [rapamycin], the antifungal activity result in the assay on Candida albicans was “antifungal activity, particularly against Candida albicans, both in vitro and in vivo”. Also, the “Skin Graft mean survival time (days ± SD)” value in the assay with pinch skin graft was found to be 12.0 ± 1.7 days. The “effect in the adjuvant arthritis model” value in assay [2] was “effective”. Further, the “effect in the experimental allergic encephalomyelitis model” value in assay [3] is “effective”. Also, the “inhibition of the formation of IgE-like antibodies” value in assay [4] is on record as “effectively inhibited the formation of IgE-like antibodies”. Also, the IC50 in assay [1] was in the range of 0.0004 to 0.0051 µM. For the same molecule, the antitumor activity result in assay [5] was “antitumor activity”.
